In assay [1] the test system is CD34+ BMDEC. The assay can be described thus: SDF-1/Relaxin induced chemotaxis (Boyden chamber). Format: cell-based, human. As to conditions: 10 μM L-NAME. The protocol: Isolation of CD34+ BMDEC. The study protocol was approved by the Institutional Review Board of the University of Florida, and written informed consent was obtained from each subject. Blood was collected from healthy controls by routine venipuncture into CPT™ Tubes with heparin (BD Biosciences, Franklin Lakes, N.J.), centrifuged at room temperature in a swinging bucket rotor for 20 minutes at 1800 RCF, the peripheral blood mononuclear cells (PBMCs) diluted with phosphate buffered saline supplemented with 2 mM EDTA (PBSE) and centrifuged for 10 minutes at 300 RCF. After washing the cell pellet, centrifugation was repeated. 3.3×10^7 PBMCs were resuspended in 100 μl of PBSE to which 33 μl of FcR blocking reagent (Miltenyi Biotec Inc., Auburn, Calif.) and 33 μl of magnetic microbeads conjugated with an anti-CD34 antibody was added. After incubation for 30 minutes at 4° C., the cells were diluted in 10× the volume of PBSE supplemented with 0.1% bovine serum albumin. The CD34+ BMDEC were positively selected using an automated magnetic selection autoMACS™ (Miltenyi Biotec Inc., Auburn, Calif.). […] After 4.5 hours at 5% CO2 at 37° C., the percentage of cells that migrated was determined by collecting the media in the lower chamber and determining the relative fluorescence using a Synergy™ HT (Bio-Tek Instruments, Inc., Winooski, Vt.) with an excitation of 485±20 and an emission of 528±20 nm. […]

For assay [2], the system named is CD34+ BMDEC. Kind of assay: Detection of nitric oxide (NO) produced by cells (DAF-FM fluorescence). Format: cell-based, human. Conditions: pretreatment with MK2206 20 nM 30 minutes; 50 ng/ml rhRLX. As for the experimental part: Isolation of CD34+ BMDEC. The study protocol was approved by the Institutional Review Board of the University of Florida, and written informed consent was obtained from each subject. Blood was collected from healthy controls by routine venipuncture into CPT™ Tubes with heparin (BD Biosciences, Franklin Lakes, N.J.), centrifuged at room temperature in a swinging bucket rotor for 20 minutes at 1800 RCF, the peripheral blood mononuclear cells (PBMCs) diluted with phosphate buffered saline supplemented with 2 mM EDTA (PBSE) and centrifuged for 10 minutes at 300 RCF. After washing the cell pellet, centrifugation was repeated. […]
Detection of Nitric Oxide (NO) produced by cells. […] Bioavailable NO was determined as previously described (Shah, R., Beem, E., Sautina, L., Zharikov, S. I., and Segal, M. S. 2007. Mitomycin- and calcineurin-associated HUS, endothelial dysfunction and endothelial repair: a new paradigm for the puzzle? Nephrol Dial Transplant 22:617-620). […] DAF-FM fluorescence increases by about 160-fold when it reacts with NO. Green fluorescence was measured using the inverted fluorescent Carl Zeiss Axiovert 200M microscope equipped with a CCD camera and Slidebook software (v.4.1; Intelligent Imaging Innovations, Inc. Denver, Colo.). Fluorescence intensity was measured in 20-30 cells per field in at least 6 fields per well. […]

Take `COC(=O)[C@@H](N)CCCNC(=N)N[N+](=O)[O-]` [L-NAME, L—N^G-nitroarginine methy ester]: the “effect on basal level of migration” value with CD34+ BMDEC [1] is on record as “unaffected”. The “effect on relaxin-stimulated chemotaxis” value in the assay on CD34+ BMDEC [1] (50 ng/ml rhRLX) was “blocked”.
For `NC1(c2ccc(-c3nc4ccn5c(=O)[nH]nc5c4cc3-c3ccccc3)cc2)CCC1` [MK2206], in the assay on CD34+ BMDEC [2], the “effect on rhRLX stimulation of NO” value is reported as “prevented”.

The values above are taken from patent publication US10493131B2, “Materials and methods for modulating activity of bone marrow derived cells” (University of Florida Research Foundation, Incorporated, priority 2011, dated 2019).
